# Experimental data from patent publication US10155810B2, “Provasopressin antagonists and uses thereof” (Woomera Therapeutics, Inc., priority 2011, dated 2018).
# Tested on: recurrent H82 SCLC cells xenografts
# Test: H82 SCLC xenograft, combination with cyclophosphamide
# Assay type: in vivo, nu/nu mice
# Conditions: cyclophosphamide 50 mg/kg daily for 3 days, then 100 μg MAG-1 daily for 11 days, i.p.
# Experimental: Three groups of nu/nu mice (8 animal per group) were injected with 1×10^7 recurrent H82 SCLC cells per mouse s.c. on the right flank, and the tumors were allowed to grow to an average of about 300 mm^3 in about 14 days. All treatment was carried out by injection intraperitoneally.
smiles,measurement,value
O=P1(N(CCCl)CCCl)NCCCO1 (stereo not shown) [cyclophosphamide],efficacy of combined therapy on tumor growth,synergistic efficacy
